Reference: the supplement of paper PMC11962398

Tests used:
BI-2493 [1] = compound: T1, C[C@H]1CNCCN1c1nccc(-c2noc3c2CCC[C@@]32CCCc3sc(N)c(C#N)c32)n1 [BI-2493]; details: 5 days
Experimental: (§1)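 PRISM pooled barcoded cancer cell line viability screen (Broad Institute) with BI-2493 at 8 doses in threefold dilutions from 0.00457 to 10 µmol/L, 5-day treatment; curves fitted per cell line. IC50 is undefined (placeholder) for resistant lines. AUC is capped at 1, and sensitivity is reported as 1 − AUC.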

BI-2493 [2] = compound: T1, BI-2493; assay: 1 - AUC of viability dose-response curve (sensitivity) (fraction); higher = more sensitive; details: 5 days
Experimental: as §1

Row | Test System | IC50 of cell viability (BI-2493 [1]) [µM] | 1 - AUC of viability dose-response curve (BI-2493 [2])
1 | ECGI10_OESOPHAGUS | 4.75 | 0.15
2 | EFM19_BREAST | 8.2 | 0.0426
3 | EFM192A_BREAST | > 10 | 0.0526
4 | EFO21_OVARY | > 10 | 0.106
5 | EFO27_OVARY | 9.28 | 0.167
6 | EKVX_LUNG | 7.44 | 0.146
7 | EM2_HAEMATOPOIETIC_AND_LYMPHOID_TISSUE | 4.85 | 0.207
8 | EMTOKA_ENDOMETRIUM | 4.31 | 0.0999
9 | EN_ENDOMETRIUM | 9.54 | 0.0294
10 | EOL1_HAEMATOPOIETIC_AND_LYMPHOID_TISSUE | 0.77 | 0.355
11 | ES2_OVARY | 9.51 | 0.00984
12 | ESS1_ENDOMETRIUM | 1.43 | 0.362
13 | EW8_BONE | 4.5 | 0.0935
14 | EWS502_BONE | 3.56 | 0.177
15 | FADU_UPPER_AERODIGESTIVE_TRACT | 6.09 | 0.102
16 | FLO1_OESOPHAGUS | 4.86 | 0.0758
17 | FTC133_THYROID | > 10 | 0.0578
18 | G292CLONEA141B1_BONE | > 10 | 0.0653
19 | G361_SKIN | 4.01 | 0.117
20 | G401_SOFT_TISSUE | > 10 | 0.17
21 | G402_SOFT_TISSUE | 4.25 | 0.117
22 | G415_BILIARY_TRACT | 2.22 | 0.245
23 | GAMG_CENTRAL_NERVOUS_SYSTEM | 8.24 | 0.0333
24 | GB1_CENTRAL_NERVOUS_SYSTEM | > 10 | 0.00342
25 | GB2_BILIARY_TRACT | 2.24 | 0.256
26 | GCIY_STOMACH | > 10 | 0.00163

Row | Test System | IC50 of cell viability (BI-2493 [1]) [µM] | 1 - AUC of viability dose-response curve (BI-2493 [2])
27 | GCT27_TESTIS | > 10 | 0.128
28 | GCT_SOFT_TISSUE | 6.05 | 0.0856
29 | GI1_CENTRAL_NERVOUS_SYSTEM | 3.59 | 0.132
30 | GOS3_CENTRAL_NERVOUS_SYSTEM | 9.35 | 0.0406
31 | GP5D_LARGE_INTESTINE | > 10 | 0.0606
32 | GRANTA519_HAEMATOPOIETIC_AND_LYMPHOID_TISSUE | > 10 | 0.0332
33 | GSS_STOMACH | 3.3 | 0.19
34 | H4_CENTRAL_NERVOUS_SYSTEM | 5.48 | 0.0861
35 | H103_UPPER_AERODIGESTIVE_TRACT | 7.57 | 0.0476
36 | H157_UPPER_AERODIGESTIVE_TRACT | 8.84 | 0.023
37 | H376_UPPER_AERODIGESTIVE_TRACT | 5.33 | 0.243
38 | H413_UPPER_AERODIGESTIVE_TRACT | > 10 | 0.126
39 | HA1E_KIDNEY | > 10 | 0.223
40 | HAC2_OVARY | 6.07 | 0.157
41 | HCA1_CERVIX | 4.58 | 0.132
42 | HCC15_LUNG | 9.81 | 0.0598
43 | HCC33_LUNG | 9.27 | 0.161
44 | HCC44_LUNG | 1.66 | 0.257
45 | HCC56_LARGE_INTESTINE | 2.37 | 0.242
46 | HCC78_LUNG | 7.51 | 0.164
47 | HCC515_LUNG | 5.55 | 0.103
48 | HCC827_LUNG | 7.98 | 0.0511
49 | HCC1143_BREAST | 9.86 | 0.106
50 | HCC1195_LUNG | 9.21 | 0.0206
51 | HCC1359_LUNG | 9.67 | 0.00729
52 | HCC1395_BREAST | 5.13 | 0.139

Row | Test System | IC50 of cell viability (BI-2493 [1]) [µM] | 1 - AUC of viability dose-response curve (BI-2493 [2])
53 | HCC1419_BREAST | 7.93 | 0.0762
54 | HCC1428_BREAST | 5.47 | 0.106
55 | HCC1438_LUNG | > 10 | < 0
56 | HCC1806_BREAST | 5.35 | 0.0665
57 | HCC1937_BREAST | > 10 | 0.143
58 | HCC1954_BREAST | 5.1 | 0.0754
59 | HCC2108_LUNG | 9.5 | 0.0106
60 | HCC4006_LUNG | > 10 | 0.233
61 | HCSC1_CERVIX | 9.79 | 0.0229
62 | HCT116_LARGE_INTESTINE | 4.75 | 0.167
63 | HDMB03_CENTRAL_NERVOUS_SYSTEM | 4.5 | 0.129
64 | HDMYZ_HAEMATOPOIETIC_AND_LYMPHOID_TISSUE | 9.62 | 0.00919
65 | HDQP1_BREAST | 8.25 | 0.0753
66 | HEC1A_ENDOMETRIUM | 3.64 | 0.136
67 | HEC1B_ENDOMETRIUM | 3.94 | 0.175
68 | HEC1_ENDOMETRIUM | 5.02 | 0.131
69 | HEC6_ENDOMETRIUM | 8.15 | 0.0397
70 | HEC59_ENDOMETRIUM | 9.3 | 0.025
71 | HEC108_ENDOMETRIUM | 5.68 | 0.123
72 | HEC116_ENDOMETRIUM | 9.57 | 0.012
73 | HEC151_ENDOMETRIUM | 5.89 | 0.0839
74 | HEC251_ENDOMETRIUM | 3.15 | 0.282
75 | HEC265_ENDOMETRIUM | 3.76 | 0.109
76 | HEL9217_HAEMATOPOIETIC_AND_LYMPHOID_TISSUE | 4.27 | 0.173
